Earlier results in patent US20050038042A1, “Modified release composition comprising a short-acting hypnotic for treatment of sleep disorders” (priority 2002, published 2005).

Experiments:
[1] = compared with marketed benzodiazepines
[2] = in humans

CCN(C(C)=O)c1cccc(-c2ccnc3c(C#N)cnn23)c1 [Zaleplon, N-[3-(3-cyanopyrazolo[1,5-a]pyrimidin-7-yl)phenyl]-N-ethylacetamide]
effects in animal models [1]: sedative, anxiolytic, myorelaxant, and anticonvulsive effects similar to those of marketed benzodiazepines
time to maximum plasma concentration (tmax) [2]: 48 min
effect on sleep onset (clinical trials): effective in shortening sleep onset
safety profile (clinical trials, versus previously available benzodiazepine or nonbenzodiazepine hypnotics): more favorable safety profile
period over which decreased time to sleep onset was shown (controlled clinical studies): up to 28 days
mean duration of effect (human, in vivo): 4 to 5 h
total sleep time / number of awakenings (patients with sleep disorders): not been shown to consistently increase total sleep time or decrease the number of awakenings
